Consider five compounds from US20260007644A1, “NIMODIPINE COMPOSITION FREE OF ETHANOL AND PHOSPHOLIPID FOR MOIST HEAT STERILIZATION AND METHOD FOR PREPARING SAME” (BEIJING DELIVERY PHARMACEUTICAL TECHNOLOGY CO., LTD, priority 2022, published 2026).

Series [1] in a line: Description / appearance of the concentrates (visual inspection). It counts as physicochemical. Particulars: 1.00 g active ingredient, HS15 45.00 g, propylene glycol 54.00 g, sterilized at 121° C. for 15 minutes. Here is the method:
The formation of solution upon dilution with 5% dextrose injection and the stability of the diluted solutions (the concentration of nimodipine is 0.1 mg/mL) were observed.
According to the Guidelines for the Stability Testing of Drug Substances and Preparations in Section 9001 of the General Notices, Pharmacopoeia of the People's Republic of China 2020, Volume IV, the concentrates prepared in Example 10 were tested at a temperature of 60° C. or under the light with an intensity of 5000 Lux, and sampled at the end of the 5th, 10th and 30th days to examine the specified items. • 1.
Method: visual inspection.

The conditions of series [2]: cited from earlier work.

As to `CC[C@@H]([C@H](C)O)n1ncn(-c2ccc(N3CCN(c4ccc(OC[C@@H]5CO[C@@](Cn6cncn6)(c6ccc(F)cc6F)C5)cc4)CC3)cc2)c1=O` [posaconazole], the “formation of a clear and transparent solution in the system of HS15 and propylene glycol” value (“formation” for short) in series [1] is “failed to form clear and transparent solutions”.
On to ginsenoside, for which the “formation” value in series [1] was “failed to form clear and transparent solutions”.
Same read-out and setting: the entry for `C=C1CC[C@@H]2[C@](C)(CO)[C@H](O)CC[C@@]2(C)[C@@H]1C/C=C1/C(=O)OC[C@H]1O` [andrographolide] is “failed to form clear and transparent solutions”.
For the compound `COCCOC(=O)C1=C(C)NC(C)=C(C(=O)OC(C)C)C1c1cccc([N+](=O)[O-])c1` (racemic) [Nimodipine, 1-methylethyl 2-methoxyethyl (±)-2,6-dimethyl-4-(3-nitrophenyl)-1,4-dihydropyridine-3,5-dicarboxylate], the solubility in water entry in series [2] was “insoluble in water”.
As for `COc1cc([C@@H]2c3cc4c(cc3[C@@H](O[C@@H]3O[C@@H]5CO[C@@H](c6cccs6)O[C@H]5[C@H](O)[C@H]3O)[C@H]3COC(=O)[C@H]23)OCO4)cc(OC)c1O` [teniposide], in series [1], the “formation” value is “failed to form clear and transparent solutions”.
